The results in this text go back to patent publication US20230331673A1, “COMPOSITION OF COMPOUNDS THAT MODULATE CELL METABOLISM AND METHODS OF USE” (CRESCENTA BIOSCIENCES, priority 2020, published 2023).

The structures appear in SMILES notation.

The assay deals with differentiated 3T3-L1 mouse adipocyte cells. Briefly: Adipocyte glucose consumption in differentiated 3T3-L1 mouse adipocyte cells (loss of glucose from medium, colorimetric). It counts as cell-based. The settings on record: compound 10 μM, 22 to 24 hours, differentiated 3T3-L1 adipocytes, compound/DMSO, read-out: Glucose consumption (fold change) Mean. As for the experimental part: Activity of compounds on adipocyte glucose consumption was tested in differentiated 3T3-L1 mouse adipocyte cells. 3T3-L1 preadipocytes (ATCC) were routinely cultured in a growth medium composed of DMEM high-glucose (Sigma), 10% FBS (Gibco), 10 U/ml penicillin and 10 μg/ml streptomycin (P/S; Gibco). To induce adipogenic differentiation, a confluent layer of 3T3-L1 cells were incubated with the growth medium containing 2 μM rosiglitazone, 1 μM dexamethasone, 500 μM IBMX, and 1 μg/ml insulin (Sigma). Forty-eight (48) hours later (on day 2) and on days 4 and 6, medium of the cells was replaced with fresh medium containing 1 μg/ml insulin. On days 8 and 10, the medium was refreshed with regular growth medium and addition of insulin was omitted. On day 11 or 12, medium of the cells were replaced with fresh medium containing either the indicated compounds (10 μM) or the vehicle in which the compounds were dissolved (DMSO). The final concentration of DMSO was 0.1% (v/v). Growth medium containing 0.1% DMSO was incubated in culture wells containing no cells and used as control. Twenty-two to 24 hours later, medium was harvested and subjected to centrifugation at 10,000 g for 5 min. Glucose concentration in the supernatants was determined using a colorimetric assay (Glucose Assay Kit I, Eton Biosciences). Glucose consumption in compound and vehicle treated cells was measured as loss of glucose from the culture medium and represented as mean fold change (compound/DMSO) t standard deviation (SD).
As to `CCCCC1CCCc2c1n(Cc1cccc(C(N)=O)c1)c1c(C(=O)O)cccc21` (centres unmarked) [1-butyl-9-[(3-carbamoylphenyl)methyl]-2,3,4,9-tetrahydro-1H-carbazole-8-carboxylic acid], the fold induction at 10 µM amounted to 1.02. Next, `CCCCC1CCCc2c1n(Cc1cccc(C#N)c1)c1c(C(=O)O)cccc21` (centres unmarked) [1-butyl-9-[(3-cyanophenyl)methyl]-2,3,4,9-tetrahydro-1H-carbazole-8-carboxylic acid]: 1.14. Next, `CCCCC1CCCc2c(n(Cc3cccc(C(N)=O)c3)c3c(C(=O)NCC(=O)O)cccc23)C1` (centres unmarked) [2-({7-butyl-5-[(3-carbamoylphenyl)methyl]-5H,6H,7H,8H,9H,10H-cyclohepta[b]indol-4-yl}formamido)acetic acid]: 0.9; `CCCCC1CCCc2c(n(Cc3cccc(C#N)c3)c3c(C(=O)NCC(=O)O)cccc23)C1` (centres unmarked) [2-({7-butyl-5-[(3-cyanophenyl)methyl]-5H,6H,7H,8H,9H,10H-cyclohepta[b]indol-4-yl}formamido)acetic acid]: 1.2; `CCCCC1Cc2c(n(Cc3cccc(C(N)=O)c3)c3c(C(=O)O)cccc23)C1` (centres unmarked) [2-butyl-4-[(3-carbamoylphenyl)methyl]-1H,2H,3H,4H-cyclopenta[b]indole-5-carboxylic acid]: 1.14. Take `CCCCC1Cc2c(n(Cc3cccc(C#N)c3)c3c(C(=O)O)cccc23)C1` (centres unmarked) [2-butyl-4-[(3-cyanophenyl)methyl]-1H,2H,3H,4H-cyclopenta[b]indole-5-carboxylic acid]: the fold induction at 10 µM amounted to 1.28. As to `CCCCC1CCc2c(n(Cc3cccc(C(N)=O)c3)c3c(C(=O)O)cccc23)C1` (centres unmarked) [2-butyl-9-[(3-carbamoylphenyl)methyl]-2,3,4,9-tetrahydro-1H-carbazole-8-carboxylic acid], the fold induction at 10 µM came out at 1.1.

With `CCCCCCC1CCc2c(n(Cc3ccnc(OC)c3)c3c(C(=O)O)cccc23)C1` (centres unmarked) [2-hexyl-9-[(2-methoxypyridin-4-yl)methyl]-2,3,4,9-tetrahydro-1H-carbazole-8-carboxylic acid], the fold induction at 10 µM worked out at 1.19. Consider `CCCCCCC1CCc2c(n(Cc3ccccc3C)c3c(C(=O)O)cccc23)C1` (centres unmarked) [2-hexyl-9-[(2-methylphenyl)methyl]-2,3,4,9-tetrahydro-1H-carbazole-8-carboxylic acid], for which the fold induction at 10 µM turned out to be 1.23. For `CCCCCCC1CCc2c(n(Cc3cccc(O)c3)c3c(C(=O)O)cccc23)C1` (centres unmarked) [2-hexyl-9-[(3-hydroxyphenyl)methyl]-2,3,4,9-tetrahydro-1H-carbazole-8-carboxylic acid], the fold induction at 10 µM was 1.11. Regarding `CCCCCCC1CCc2c(n(Cc3cccnc3)c3c(C(=O)O)cccc23)C1` (centres unmarked) [2-hexyl-9-[(pyridin-3-yl)methyl]-2,3,4,9-tetrahydro-1H-carbazole-8-carboxylic acid], the fold induction at 10 µM turned out to be 1.21.

On to `CCCCC1CCc2c1n(Cc1cccc(C(N)=O)c1)c1c(C(=O)O)cccc21` (centres unmarked) [3-butyl-4-[(3-carbamoylphenyl)methyl]-1H,2H,3H,4H-cyclopenta[b]indole-5-carboxylic acid], for which the fold induction at 10 µM stood at 1.15.

For the molecule `CCCCC1CCc2c1n(Cc1cccc(C#N)c1)c1c(C(=O)O)cccc21` (centres unmarked) [3-butyl-4-[(3-cyanophenyl)methyl]-1H,2H,3H,4H-cyclopenta[b]indole-5-carboxylic acid], the fold induction at 10 µM amounted to 1.21. Next, `CCCCC1CCc2c(c3cccc(C(=O)O)c3n2Cc2cccc(C(N)=O)c2)C1` (centres unmarked) [3-butyl-9-[(3-carbamoylphenyl)methyl]-2,3,4,9-tetrahydro-1H-carbazole-8-carboxylic acid]: 1.09.

For the molecule `CCCCC1CCc2c(c3cccc(C(=O)O)c3n2Cc2cccc(C#N)c2)C1` (centres unmarked) [3-butyl-9-[(3-cyanophenyl)methyl]-2,3,4,9-tetrahydro-1H-carbazole-8-carboxylic acid], the fold induction at 10 µM was found to be 1.14.

As to `CCCCCC1Cc2c(n(Cc3cccc(C(N)=O)c3)c3c(C(=O)O)cccc23)C1` (centres unmarked) [4-[(3-carbamoylphenyl)methyl]-2-pentyl-1H,2H,3H,4H-cyclopenta[b]indole-5-carboxylic acid], the fold induction at 10 µM worked out at 0.68. Regarding `CCC1CCc2c1n(Cc1cccc(C(N)=O)c1)c1c(C(=O)O)cccc21` (centres unmarked) [4-[(3-carbamoylphenyl)methyl]-3-ethyl-1H,2H,3H,4H-cyclopenta[b]indole-5-carboxylic acid], the fold induction at 10 µM stood at 1.02. Next, `CCCC1CCc2c1n(Cc1cccc(C(N)=O)c1)c1c(C(=O)O)cccc21` (centres unmarked) [4-[(3-carbamoylphenyl)methyl]-3-propyl-1H,2H,3H,4H-cyclopenta[b]indole-5-carboxylic acid]: 1.18; `CCCCCC1Cc2c(n(Cc3cccc(C#N)c3)c3c(C(=O)O)cccc23)C1` (centres unmarked) [4-[(3-cyanophenyl)methyl]-2-pentyl-1H,2H,3H,4H-cyclopenta[b]indole-5-carboxylic acid]: 1.18; `CCC1CCc2c1n(Cc1cccc(C#N)c1)c1c(C(=O)O)cccc21` (centres unmarked) [4-[(3-cyanophenyl)methyl]-3-ethyl-1H,2H,3H,4H-cyclopenta[b]indole-5-carboxylic acid]: 1.12.

With `CCCC1CCc2c1n(Cc1cccc(C#N)c1)c1c(C(=O)O)cccc21` (centres unmarked) [4-[(3-cyanophenyl)methyl]-3-propyl-1H,2H,3H,4H-cyclopenta[b]indole-5-carboxylic acid], the fold induction at 10 µM is 1.38. The value for `CCCCC1CCCc2c1c1cccc(C(=O)O)c1n2Cc1cccc(C(N)=O)c1` (centres unmarked) [4-butyl-9-[(3-carbamoylphenyl)methyl]-2,3,4,9-tetrahydro-1H-carbazole-8-carboxylic acid] was 1.35. Consider `CCCCC1CCCc2c1c1cccc(C(=O)O)c1n2Cc1cccc(C#N)c1` (centres unmarked) [4-butyl-9-[(3-cyanophenyl)methyl]-2,3,4,9-tetrahydro-1H-carbazole-8-carboxylic acid], for which the fold induction at 10 µM came to 1.28. The value for `CCCCCCC1CCCc2c(n(Cc3ccc4ncoc4c3)c3c(C(=O)O)cccc23)C1` (centres unmarked) [5-[(1,3-benzoxazol-6-yl)methyl]-7-hexyl-5H,6H,7H,8H,9H,10H-cyclohepta[b]indole-4-carboxylic acid] was 1.17; that for `CCCCCCC1CCCc2c(n(Cc3ccccc3C(N)=O)c3c(C(=O)O)cccc23)C1` (centres unmarked) [5-[(2-carbamoylphenyl)methyl]-7-hexyl-5H,6H,7H,8H,9H,10H-cyclohepta[b]indole-4-carboxylic acid] was 0.97. On to `CCCCCCC1CCCc2c(n(Cc3ccccc3F)c3c(C(=O)O)cccc23)C1` (centres unmarked) [5-[(2-fluorophenyl)methyl]-7-hexyl-5H,6H,7H,8H,9H,10H-cyclohepta[b]indole-4-carboxylic acid], for which the fold induction at 10 µM was 1.17. `CCCCCCC1CCCc2c(n(Cc3c(C)noc3C)c3c(C(=O)O)cccc23)C1` (centres unmarked) [5-[(3,5-dimethyl-1,2-oxazol-4-yl)methyl]-7-hexyl-5H,6H,7H,8H,9H,10H-cyclohepta[b]indole-4-carboxylic acid]: the fold induction at 10 µM is 0.95.

Regarding `CCC1CCCc2c(n(Cc3cccc(C(N)=O)c3)c3c(C(=O)O)cccc23)C1` (centres unmarked) [5-[(3-carbamoylphenyl)methyl]-7-ethyl-5H,6H,7H,8H,9H,10H-cyclohepta[b]indole-4-carboxylic acid], the fold induction at 10 µM turned out to be 0.96.

In the case of `CCCCCCC1CCCc2c(n(Cc3cccc(C(N)=O)c3)c3c(C(=O)O)cccc23)C1` (centres unmarked) [5-[(3-carbamoylphenyl)methyl]-7-hexyl-5H,6H,7H,8H,9H,10H-cyclohepta[b]indole-4-carboxylic acid], the fold induction at 10 µM is 1.26.

For the molecule `CCCCCCCCC1CCCc2c(n(Cc3cccc(C(N)=O)c3)c3c(C(=O)O)cccc23)C1` (centres unmarked) [5-[(3-carbamoylphenyl)methyl]-7-octyl-5H,6H,7H,8H,9H,10H-cyclohepta[b]indole-4-carboxylic acid], the fold induction at 10 µM is 1.13.

Regarding `CCCCCC1CCCc2c(n(Cc3cccc(C(N)=O)c3)c3c(C(=O)O)cccc23)C1` (centres unmarked) [5-[(3-carbamoylphenyl)methyl]-7-pentyl-5H,6H,7H,8H,9H,10H-cyclohepta[b]indole-4-carboxylic acid], the fold induction at 10 µM was 1.27. As to `CCCC1CCCc2c(n(Cc3cccc(C(N)=O)c3)c3c(C(=O)O)cccc23)C1` (centres unmarked) [5-[(3-carbamoylphenyl)methyl]-7-propyl-5H,6H,7H,8H,9H,10H-cyclohepta[b]indole-4-carboxylic acid], the fold induction at 10 µM was 1.06. Regarding `CCC1CCCCc2c1c1cccc(C(=O)O)c1n2Cc1cccc(C(N)=O)c1` (centres unmarked) [5-[(3-carbamoylphenyl)methyl]-10-ethyl-5H,6H,7H,8H,9H,10H-cyclohepta[b]indole-4-carboxylic acid], the fold induction at 10 µM was 0.99.

With `CCCCCC1CCCCc2c1c1cccc(C(=O)O)c1n2Cc1cccc(C(N)=O)c1` (centres unmarked) [5-[(3-carbamoylphenyl)methyl]-10-pentyl-5H,6H,7H,8H,9H,10H-cyclohepta[b]indole-4-carboxylic acid], the fold induction at 10 µM was determined as 1.27. Next, `CCCC1CCCCc2c1c1cccc(C(=O)O)c1n2Cc1cccc(C(N)=O)c1` (centres unmarked) [5-[(3-carbamoylphenyl)methyl]-10-propyl-5H,6H,7H,8H,9H,10H-cyclohepta[b]indole-4-carboxylic acid]: 1.02.
